Assay results as given in ChEMBL document CHEMBL1143804, “Synthesis and antibacterial evaluation of 1beta-methyl-2-[5-(1-methoxyimino-2-substituted sulfonamide ethyl)pyrrolidin-3-ylthio]carbapenems and their related compounds” (2007).
Converted amounts (≈) assume the structure as drawn.

What was measured:
[1] = test system: Escherichia coli; experiment: Antibacterial activity against Escherichia coli TEM; type: functional
[2] = test system: Streptococcus pyogenes; experiment: Antibacterial activity against Streptococcus pyogenes 308A; type: functional
[3] = test system: Streptococcus pyogenes; experiment: Antibacterial activity against Streptococcus pyogenes 77A; type: functional
[4] = test system: Staphylococcus aureus; experiment: Antibacterial activity against Staphylococcus aureus SG511; type: functional
[5] = test system: Staphylococcus aureus; experiment: Antibacterial activity against Staphylococcus aureus 285; type: functional
[6] = test system: Escherichia coli; experiment: Antibacterial activity against Escherichia coli DC2; type: functional
[7] = test system: Pseudomonas aeruginosa; experiment: Antibacterial activity against Pseudomonas aeruginosa 9027; type: functional
[8] = test system: Salmonella typhimurium; experiment: Antibacterial activity against Salmonella Typhimurium; type: functional, Salmonella enterica subsp. enterica serovar Typhimurium; settings: Salmonella enterica
[9] = test system: Klebsiella aerogenes; experiment: Antibacterial activity against Klebsiella aerogenes 1522E; type: functional
[10] = test system: Enterobacter cloacae; experiment: Antibacterial activity against Enterobactor cloacae 1321E; type: functional
[11] = test system: Klebsiella pneumoniae; experiment: Antibacterial activity against Klebsiella pneumonise 477; type: functional
[12] = test system: Enterobacter cloacae; experiment: Antibacterial activity against Enterobacter cloacae; type: functional
[13] = test system: Enterobacter cloacae; experiment: Antibacterial activity against Enterobacter cloacae 417; type: functional
[14] = test system: Serratia marcescens; experiment: Antibacterial activity against Serratia marcescens 370; type: functional
[15] = test system: Serratia marcescens; experiment: Antibacterial activity against Serratia marcescens 6093; type: functional
[16] = test system: Serratia marcescens; experiment: Antibacterial activity against Serratia marcescens 14273; type: functional
[17] = test system: Proteus mirabilis; experiment: Antibacterial activity against Proteus mirabilis 112/3; type: functional
[18] = test system: Proteus mirabilis; experiment: Antibacterial activity against Proteus mirabilis 174/3; type: functional
[19] = test system: Proteus vulgaris; experiment: Antibacterial activity against Proteus vulgaris 868; type: functional
[20] = test system: Providencia rettgeri; experiment: Antibacterial activity against Proteus rettgeri 936; type: functional
[21] = test system: Staphylococcus aureus; experiment: Antibacterial activity against Staphylococcus aureus giorgio; type: functional
[22] = test system: Staphylococcus aureus; experiment: Antibacterial activity against Staphylococcus aureus 209P; type: functional
[23] = test system: Staphylococcus aureus; experiment: Antibacterial activity against Staphylococcus aureus 503; type: functional
[24] = test system: Micrococcus luteus; experiment: Antibacterial activity against Micrococcus luteus ATCC 9341; type: functional
[25] = test system: Enterococcus faecium; experiment: Antibacterial activity against Streptococcus faecium 77A; type: functional
[26] = test system: Streptococcus agalactiae; experiment: Antibacterial activity against Streptococcus agalactiae B; type: functional
[27] = test system: Enterococcus durans; experiment: Antibacterial activity against Streptococcus durans D; type: functional
[28] = test system: Bacillus subtilis; experiment: Antibacterial activity against Bacillus subtilts ATCC 6633; type: functional
[29] = test system: Priestia megaterium; experiment: Antibacterial activity against Bacillus megaterium; type: functional
[30] = test system: Pseudomonas aeruginosa; experiment: Antibacterial activity against Pseudomonas aeruginosa 77/2; type: functional
[31] = test system: Pseudomonas aeruginosa; experiment: Antibacterial activity against Pseudomonas aeruginosa 110/2; type: functional
[32] = test system: Pseudomonas aeruginosa; experiment: Antibacterial activity against Pseudomonas aeruginosa 880/2; type: functional
[33] = test system: Burkholderia cepacia; experiment: Antibacterial activity against Pseudomonas cepacia; type: functional
[34] = test system: Escherichia coli; experiment: Antibacterial activity against Escherichia coli 086; type: functional
[35] = test system: Escherichia coli; experiment: Antibacterial activity against Escherichia coli 0114; type: functional
[36] = test system: Escherichia coli; experiment: Antibacterial activity against Escherichia coli 0126; type: functional
[37] = test system: Escherichia coli; experiment: Antibacterial activity against Escherichia coil V6311/65; type: functional
[38] = test system: Escherichia coli; experiment: Antibacterial activity against Escherichia coil 1507; type: functional
[39] = Antibacterial activity against Salmonella oranienberg; type: functional, Salmonella enterica subsp. enterica serovar Oranienburg; settings: Salmonella enterica
[40] = test system: Salmonella typhi; experiment: Antibacterial activity against Salmonella typhi; type: functional, Salmonella enterica subsp. enterica serovar Typhi; settings: Salmonella enterica
[41] = test system: Salmonella; experiment: Antibacterial activity against Salmonella orion; type: functional
[42] = Antibacterial activity against Salmonella give; type: functional, Salmonella enterica subsp. enterica serovar Give; settings: Salmonella enterica
[43] = test system: Providencia rettgeri; experiment: Antibacterial activity against Proteus rettgeri 937; type: functional
[44] = test system: Pasteurella multocida; experiment: Antibacterial activity against Pasteurella multocida; type: functional
[45] = test system: Corynebacterium diphtheriae; experiment: Antibacterial activity against Corynebacterium diphtheriae; type: functional
[46] = test system: Trueperella pyogenes; experiment: Antibacterial activity against Corynebacterium pyogenes; type: functional

## CO/N=C(\CNS(=O)(=O)N(C)C)[C@@H]1C[C@H](SC2=C(C(=O)O)N3C(=O)[C@H]([C@@H](C)O)[C@H]3[C@H]2C)CN1
[1]
  MIC: 0.098 µg/mL (≈ 0.194 µM)
[2]
  MIC: 0.025 µg/mL (≈ 0.0494 µM)
[3]
  MIC: 0.013 µg/mL (≈ 0.0257 µM)
[4]
  MIC: 0.195 µg/mL (≈ 0.386 µM)
[5]
  MIC: 0.195 µg/mL (≈ 0.386 µM)
[6]
  MIC: 0.098 µg/mL (≈ 0.194 µM)
[7]
  MIC: 6.25 µg/mL (≈ 12.4 µM)
[8]
  MIC: 0.195 µg/mL (≈ 0.386 µM)
[9]
  MIC: 0.391 µg/mL (≈ 0.773 µM)
[10]
  MIC: 0.195 µg/mL (≈ 0.386 µM)

## CCNS(=O)(=O)NC/C(=N\OC)[C@@H]1C[C@H](SC2=C(C(=O)O)N3C(=O)[C@H]([C@@H](C)O)[C@H]3[C@H]2C)CN1
[1]
  MIC: 0.049 µg/mL (≈ 0.0969 µM)
[2]
  MIC: < 0.01 µg/mL
[3]
  MIC: < 0.01 µg/mL
[4]
  MIC: 0.049 µg/mL (≈ 0.0969 µM)
[5]
  MIC: 0.098 µg/mL (≈ 0.194 µM)
[6]
  MIC: 0.013 µg/mL (≈ 0.0257 µM)
[7]
  MIC: 3.12 µg/mL (≈ 6.17 µM)
[8]
  MIC: 0.025 µg/mL (≈ 0.0494 µM)
[9]
  MIC: 0.049 µg/mL (≈ 0.0969 µM)
[10]
  MIC: 0.025 µg/mL (≈ 0.0494 µM)

## CCCNS(=O)(=O)NC/C(=N\OC)[C@@H]1C[C@H](SC2=C(C(=O)O)N3C(=O)[C@H]([C@@H](C)O)[C@H]3[C@H]2C)CN1
[1]
  MIC: 0.195 µg/mL (≈ 0.375 µM)
[2]
  MIC: 0.049 µg/mL (≈ 0.0943 µM)
[3]
  MIC: 0.025 µg/mL (≈ 0.0481 µM)
[4]
  MIC: 0.195 µg/mL (≈ 0.375 µM)
[5]
  MIC: 0.195 µg/mL (≈ 0.375 µM)
[6]
  MIC: 0.098 µg/mL (≈ 0.189 µM)
[7]
  MIC: 12.5 µg/mL (≈ 24.1 µM)
[8]
  MIC: 0.098 µg/mL (≈ 0.189 µM)
[9]
  MIC: 0.195 µg/mL (≈ 0.375 µM)
[10]
  MIC: 0.195 µg/mL (≈ 0.375 µM)

## CO/N=C(\CNC(C)=O)[C@@H]1C[C@H](SC2=C(C(=O)O)N3C(=O)[C@H]([C@@H](C)O)[C@H]3[C@H]2C)CN1
[1]
  MIC: 0.025 µg/mL (≈ 0.0568 µM)
[2]
  MIC: 0.013 µg/mL (≈ 0.0295 µM)
[3]
  MIC: < 0.01 µg/mL
[4]
  MIC: 0.049 µg/mL (≈ 0.111 µM)
[5]
  MIC: 0.098 µg/mL (≈ 0.222 µM)
[6]
  MIC: 0.025 µg/mL (≈ 0.0568 µM)
[7]
  MIC: 1.56 µg/mL (≈ 3.54 µM)
[8]
  MIC: 0.049 µg/mL (≈ 0.111 µM)
[9]
  MIC: 0.049 µg/mL (≈ 0.111 µM)
[10]
  MIC: 0.013 µg/mL (≈ 0.0295 µM)

## CNS(=O)(=O)NC/C(=N\OC)[C@@H]1C[C@H](SC2=C(C(=O)O)N3C(=O)[C@H]([C@@H](C)O)[C@H]3[C@H]2C)CN1
[11]
  MIC: 0.03 µg/mL (≈ 0.061 µM)
[12]
  MIC: 0.01 µg/mL (≈ 0.0203 µM)
[13]
  MIC: 0.05 µg/mL (≈ 0.102 µM)
[14]
  MIC: 0.2 µg/mL (≈ 0.407 µM)
[15]
  MIC: 0.2 µg/mL (≈ 0.407 µM)
[16]
  MIC: 0.4 µg/mL (≈ 0.814 µM)
[17]
  MIC: 0.2 µg/mL (≈ 0.407 µM)
[18]
  MIC: 0.2 µg/mL (≈ 0.407 µM)
[19]
  MIC: 0.4 µg/mL (≈ 0.814 µM)
[20]
  MIC: 0.4 µg/mL (≈ 0.814 µM)
[1]
  MIC: 0.025 µg/mL (≈ 0.0509 µM)
[2]
  MIC: < 0.01 µg/mL
[3]
  MIC: < 0.01 µg/mL
[4]
  MIC: 0.049 µg/mL (≈ 0.0997 µM)
[5]
  MIC: 0.098 µg/mL (≈ 0.199 µM)
[6]
  MIC: 0.013 µg/mL (≈ 0.0264 µM)
[7]
  MIC: 1.56 µg/mL (≈ 3.17 µM)
[8]
  MIC: 0.025 µg/mL (≈ 0.0509 µM)
[9]
  MIC: 0.025 µg/mL (≈ 0.0509 µM)
[10]
  MIC: 0.013 µg/mL (≈ 0.0264 µM)
[21]
  MIC: 0.03 µg/mL (≈ 0.061 µM)
[22]
  MIC: 0.03 µg/mL (≈ 0.061 µM)
[23]
  MIC: 0.03 µg/mL (≈ 0.061 µM)
[24]
  MIC: 0.01 µg/mL (≈ 0.0203 µM)
[25]
  MIC: < 0.01 µg/mL
[26]
  MIC: 0.03 µg/mL (≈ 0.061 µM)
[27]
  MIC: 0.1 µg/mL (≈ 0.203 µM)
[28]
  MIC: 0.03 µg/mL (≈ 0.061 µM)
[29]
  MIC: 0.05 µg/mL (≈ 0.102 µM)
[30]
  MIC: 1.56 µg/mL (≈ 3.17 µM)
[31]
  MIC: 0.8 µg/mL (≈ 1.63 µM)
[32]
  MIC: 0.4 µg/mL (≈ 0.814 µM)
[33]
  MIC: 0.4 µg/mL (≈ 0.814 µM)
[34]
  MIC: 0.03 µg/mL (≈ 0.061 µM)
[35]
  MIC: 0.03 µg/mL (≈ 0.061 µM)
[36]
  MIC: 0.03 µg/mL (≈ 0.061 µM)
[37]
  MIC: 0.05 µg/mL (≈ 0.102 µM)
[38]
  MIC: 0.05 µg/mL (≈ 0.102 µM)
[39]
  MIC: 0.2 µg/mL (≈ 0.407 µM)
[40]
  MIC: 0.03 µg/mL (≈ 0.061 µM)
[41]
  MIC: 0.1 µg/mL (≈ 0.203 µM)
[42]
  MIC: 0.1 µg/mL (≈ 0.203 µM)
[43]
  MIC: 0.4 µg/mL (≈ 0.814 µM)
[44]
  MIC: 0.05 µg/mL (≈ 0.102 µM)
[45]
  MIC: 0.01 µg/mL (≈ 0.0203 µM)
[46]
  MIC: 0.01 µg/mL (≈ 0.0203 µM)
